Measured values published in ChEMBL document CHEMBL2384984, “Multivalent presentation of a hydrolytically stable GM(3) lactone mimetic as modulator of melanoma cells motility and adhesion” (2013).
Active and inactive are the calls of the source. The calls are words filed in the database; no cut-off is given here.

Tests used:
A-375 [1] = experiment: Inhibition of human A375 cell adhesion to fibronectin-coated dish at 50 uM incubated for 30 mins measured after 1 to 4 hrs by crystal violet staining-based method relative to control; format: functional
A-375 [2] = experiment: Cytotoxicity against human A375 cells at 10 to 50 uM after 24 hrs by crystal-violet staining-based method; format: functional, cell-based
[3] = biological target: RAC-alpha serine/threonine-protein kinase (Homo sapiens) (UniProt P31749); experiment: Inhibition of AKT phosphorylation in human A375 cells at 50 uM after 24 hrs by Western blotting analysis; format: cell-based; conditions: A-375
A-375 [4] = experiment: Induction of anoikis in human A375 cells at 50 uM after 24 hrs by FITC-labeled Annexin V-propidium iodide staining-based FACS flow cytometric analysis (reference value: 15%); format: functional
A-375 [5] = experiment: Inhibition of serum-starved human A375 cell migration at 50 uM after 24 hrs relative to control; format: functional; conditions: A-375, 24 h

RAC-alpha serine/threonine-protein kinase (Homo sapiens), sequence (P31749 whole entry): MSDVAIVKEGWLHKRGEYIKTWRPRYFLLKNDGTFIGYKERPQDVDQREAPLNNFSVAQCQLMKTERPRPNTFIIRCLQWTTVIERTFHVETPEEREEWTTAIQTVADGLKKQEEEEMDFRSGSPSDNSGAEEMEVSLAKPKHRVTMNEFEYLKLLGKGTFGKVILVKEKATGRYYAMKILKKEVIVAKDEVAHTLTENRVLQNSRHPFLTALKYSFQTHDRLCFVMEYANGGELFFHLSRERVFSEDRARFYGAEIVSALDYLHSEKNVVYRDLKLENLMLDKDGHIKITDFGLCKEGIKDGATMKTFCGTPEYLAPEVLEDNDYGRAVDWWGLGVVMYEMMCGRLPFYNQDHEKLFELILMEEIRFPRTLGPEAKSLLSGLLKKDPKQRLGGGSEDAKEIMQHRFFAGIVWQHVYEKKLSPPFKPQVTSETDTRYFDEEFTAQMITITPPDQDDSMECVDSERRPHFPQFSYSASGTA

| SMILES | inhibition (A-375 [1]) | Activity (A-375 [2]) | inhibition [3] | Activity (A-375 [4]) | inhibition at 50 µM (A-375 [5]) | inhibition at 50 µM (A-375 [1]) |
| --- | --- | --- | --- | --- | --- | --- |
| CC(C)(C)OC(=O)NCCN(CCC(=O)NCCNC(=O)CCCCC(=O)NCCCCCCO[C@H]1O[C@H](CO)[C@H](O)C2=C1SC[C@@]1(C[C@@H](O)[C@@H](O)[C@@H]([C@H](O)CO)O1)O2)CCC(=O)NCCNC(=O)CCCCC(=O)NCCCCCCO[C@H]1O[C@H](CO)[C@H](O)C2=C1SC[C@@]1(C[C@@H](O)[C@@H](O)[C@@H]([C@H](O)CO)O1)O2 | inactive | inactive | – | – | – | – |
| CC(=O)OC[C@@H](OC(C)=O)[C@@H]1O[C@@]2(CSC3=C(O2)[C@@H](OC(C)=O)[C@@H](COC(C)=O)O[C@@H]3OCCCCCCNC(=O)CCCCC(=O)Oc2ccc([N+](=O)[O-])cc2)C[C@H](OC(C)=O)[C@@H]1OC(C)=O | inactive | – | – | – | – | – |
| CC(C)(C)OC(=O)NCCN(CCC(=O)NCCN)CCC(=O)NCCN | inactive | – | – | – | – | – |
| CCCOc1c2cc(CCCn3cc(CCO[C@H]4O[C@H](CO)[C@H](O)C5=C4SC[C@]4(C[C@@H](O)[C@@H](O)[C@@H]([C@H](O)CO)O4)O5)nn3)cc1Cc1cc(CCCn3cc(CCO[C@H]4O[C@H](CO)[C@H](O)C5=C4SC[C@]4(C[C@@H](O)[C@@H](O)[C@@H]([C@H](O)CO)O4)O5)nn3)cc(c1OCCC)Cc1cc(CCCn3cc(CCO[C@H]4O[C@H](CO)[C@H](O)C5=C4SC[C@]4(C[C@@H](O)[C@@H](O)[C@@H]([C@H](O)CO)O4)O5)nn3)cc(c1OCCC)Cc1cc(CCCn3cc(CCO[C@H]4O[C@H](CO)[C@H](O)C5=C4SC[C@]4(C[C@@H](O)[C@@H](O)[C@@H]([C@H](O)CO)O4)O5)nn3)cc(c1OCCC)C2 | – | inactive | Active | 32% | 60% | 33% |
| O=C(CCCCC(=O)NCCNC(=O)CCN(CCC(=O)NCCNC(=O)CCCCC(=O)NCCCCCCO[C@H]1O[C@H](CO)[C@H](O)C2=C1SC[C@]1(C[C@@H](O)[C@@H](O)[C@@H]([C@H](O)CO)O1)O2)CCN(CCC(=O)NCCNC(=O)CCCCC(=O)NCCCCCCO[C@H]1O[C@H](CO)[C@H](O)C2=C1SC[C@@]1(C[C@@H](O)[C@@H](O)[C@@H]([C@H](O)CO)O1)O2)CCC(=O)NCCNC(=O)CCCCC(=O)NCCCCCCO[C@H]1O[C@H](CO)[C@H](O)C2=C1SC[C@@]1(C[C@@H](O)[C@@H](O)[C@@H]([C@H](O)CO)O1)O2)NCCCCCCO[C@H]1O[C@H](CO)[C@H](O)C2=C1SC[C@]1(C[C@@H](O)[C@@H](O)[C@@H]([C@H](O)CO)O1)O2 | inactive | inactive | – | – | – | – |
| CO[C@H]1O[C@H](CO)[C@H](O)C2=C1SC[C@]1(C[C@H](O)[C@H](O)[C@H]([C@H](O)CO)O1)O2 | inactive | inactive | – | – | – | – |
